Results taken from PMC12845261, “Design, Synthesis, and Biological Evaluation of N-Acyl-Hydrazone-Linked Quinazolinone Derivatives with Antioxidant, Antimicrobial, and Anticancer Potential” (Pharmaceuticals, 2025).
Where “and” joins values, the source holds several entries; their conditions need not be identical. Equal values may be shown once.

Key:
Artemia franciscana = Artemia franciscana toxicity assay (nauplii lethality); conditions: from LC50 at 48 h, standard aquatic toxicity classifications [53]
Experimental: (§1) The brine shrimp cysts (Artemia franciscana) were sourced from Great Salt Lake (USA) through Ocean Star International (Burlingame, CA, USA) via S.K. Trading (Bangkok, Thailand), which carried out the repackaging. Artificial seawater was prepared by dissolving a CoralMarine salt mixture (Grotech) in distilled water to achieve a concentration of about 30 g/L. The cysts were placed in artificial seawater at 25 °C under vigorous aeration. They were allowed to hatch 48 h before the onset of the test, the brine shrimp nauplii stage being selected for the toxicity assay.
(§2) The analyzed compounds were dissolved in 100 μL DMSO and then suspended in seawater to a final volume of 10 mL. The starting concentration was 1000 μM, followed by binary dilutions with seawater: 500 μM, 250 μM, 125 μM and 62.5 μM. A blank solution of 100 μL DMSO and seawater up to 10 mL was also prepared. 24 well-plates (6 × 4) were used and the assay was conducted in triplicate for each concentration and the blank solution. 15 ± 3 nauplii were added to each well, and the plates were placed into the dark. The viability of the nauplii was monitored at 24 and 48 h.
(§3) The LC50 was estimated by interpolation using RStudio 2025.09.2 [84, 85], the drc package. Several non-linear regression models were applied: generalized log logistic regressions (LL.2, LL2.2, LL.4, LL.5) and Weibull functions (W1.2, W1.3, W2.2, W2.3).

[1] = as above; conditions: Artemia franciscana (brine shrimp) nauplii, in vivo
Experimental: as §1, §2, §3

Cc1nc2ccccc2c(=O)n1CC(=O)NN [Compound 2, 2-(2-methyl-4-oxoquinazolin-3(4H)-yl)acetohydrazide]
Toxicity class (Artemia franciscana): moderate toxicity
LC50 at 48 h [1]: 335 µM and 77.2 µg/mL
